Laboratory results reported in patent US9253984B2, “Herbicidal compositions comprising pyroxasulfone VII” (BASF SE, priority 2008, dated 2016).
Where two headings read alike, the source gives them in different places.

Assays:
harmful plants = settings: known from Y. Yamaji et al., 2006; cited from earlier work
[1] = system: Alopecurus myosuroides (ALOMY, blackgrass); assay: greenhouse post-emergence herbicidal activity; assay type: in vivo; settings: read-out: observed % activity; for inhibition at 13 g/ha: 13 g ai/ha; for inhibition at 50 g/ha: 50 g ai/ha
Description: (§1) For the post-emergence treatment, the test plants were first grown to a height of 3 to 20 cm, depending on the plant habit, and only then treated. Here, the herbicidal compositions were suspended or emulsified in water as distribution medium and sprayed using finely distributing nozzles.
(§2) In the examples, the solvent used was water. […] In the examples, the solvent used was water.
(§3) Dicamba was used as a commercial aqueous solution having an active ingredient concentration of 480 g/l.
(§4) The test period extended over 21 days.
(§5) The evaluation for the damage caused by the chemical compositions was carried out using a scale from 0 to 100%, compared to the untreated control plants. Here, 0 means no damage and 100 means complete destruction of the plants.
(§6) The value E, which is to be expected if the activity of the individual compounds is just additive, was calculated using the method of S. R. Colby (1967) “Calculating synergistic and antagonistic responses of herbicide combinations”, Weeds 15, p. 22 ff. E=X+Y−(X·Y/100) where X=effect in percent using herbicide A at an application rate a; • Y=effect in percent using herbicide B at an application rate b; • E=expected effect (in %) of A+B at application rates a+b.
(§7) If the value observed in this manner is higher than the value E calculated according to Colby, a synergistic effect is present.

[2] = system: Setaria lutescens (SETLU, yellow foxtail); assay: greenhouse post-emergence herbicidal activity; assay type: in vivo; settings: read-out: observed % activity; for inhibition at 13 g/ha: 13 g ai/ha; for inhibition at 50 g/ha: 50 g ai/ha
Description: as §1, §2, §3, §4, §5, §6, §7

[3] = system: Polygonum convolvulus (POLCO, wild buckwheat); assay: greenhouse post-emergence herbicidal activity; assay type: in vivo; settings: 20 DAT
Description: as §1, §2, §3, §4, §5, §6, §7

[4] = system: Echinochloa crus-galli (ECHCG, barnyardgrass); assay: greenhouse post-emergence herbicidal activity; assay type: in vivo; settings: read-out: observed % activity; for inhibition at 13 g/ha: 13 g ai/ha; for inhibition at 100 g/ha: 100 g ai/ha
Description: as §1, §2, §3, §4, §5, §6, §7

[5] = system: Setaria faberii (SETFA, giant foxtail); assay: greenhouse post-emergence herbicidal activity; assay type: in vivo; settings: Setaria faberi, read-out: observed % activity; for inhibition at 50 g/ha: 50 g ai/ha; for inhibition at 100 g/ha: 100 g ai/ha
Description: as §1, §2, §3, §4, §5, §6, §7

[6] = system: Ipomoea purpurea (PHBPU, tall morningglory); assay: greenhouse post-emergence herbicidal activity; assay type: in vivo; settings: 20 DAT
Description: as §1, §2, §3, §4, §5, §6, §7

[7] = system: Helianthus annuus (HELAN, sunflower); assay: greenhouse pre-emergence herbicidal activity; assay type: in vivo; settings: read-out: observed % activity; for inhibition at 25 g/ha: 25 g ai/ha; for inhibition at 50 g/ha: 50 g ai/ha; for inhibition at 100 g/ha: 100 g ai/ha; for inhibition at 200 g/ha: 200 g ai/ha
Description: (§8) The containers were irrigated gently to promote germination and growth and subsequently covered with transparent plastic hoods until plant had rooted.
as §2, §3, §4, §5, §6, §7

[8] = system: Matricaria inermis (MATIN, scentless mayweed); assay: greenhouse pre-emergence herbicidal activity; assay type: in vivo; settings: read-out: observed % activity; for inhibition at 50 g/ha: 50 g ai/ha; for inhibition at 200 g/ha: 200 g ai/ha
Description: as §8, §2, §3, §4, §5, §6, §7

[9] = system: Abutilon theophrasti (ABUTH, velvetleaf); assay: greenhouse pre-emergence herbicidal activity; assay type: in vivo; settings: read-out: observed % activity; for inhibition at 25 g/ha: 25 g ai/ha; for inhibition at 50 g/ha: 50 g ai/ha; for inhibition at 200 g/ha: 200 g ai/ha
Description: as §8, §2, §3, §4, §5, §6, §7

[10] = system: Ambrosia artemisifolia (AMBEL, common ragweed); assay: greenhouse pre-emergence herbicidal activity; assay type: in vivo; settings: read-out: observed % activity; for inhibition at 50 g/ha: 50 g ai/ha; for inhibition at 200 g/ha: 200 g ai/ha
Description: as §8, §2, §3, §4, §5, §6, §7

[11] = system: Xanthium strumarium (XANST, cocklebur); assay: greenhouse pre-emergence herbicidal activity; assay type: in vivo; settings: read-out: observed % activity; for inhibition at 25 g/ha: 25 g ai/ha; for inhibition at 100 g/ha: 100 g ai/ha; for inhibition at 200 g/ha: 200 g ai/ha
Description: as §8, §2, §3, §4, §5, §6, §7

Structure (SMILES): Cn1nc(C(F)(F)F)c(CS(=O)(=O)C2=NOC(C)(C)C2)c1OC(F)F [pyroxasulfone, 3-[5-(difluoromethoxy)-1-methyl-3-(trifluoromethyl)pyrazol-4-ylmethylsulfonyl]-4,5-dihydro-5,5-dimethyl-1,2-oxazole]
- post-emergence activity (harmful plants): only poor post-emergence activity
- inhibition at 13 g/ha ([1]; 168 h, 7 DAT): 0%
- inhibition at 13 g/ha ([1]; 480 h, 20 DAT): 15%
- inhibition at 13 g/ha ([2]; 168 h, 7 DAT): 0%
- inhibition at 13 g/ha ([2]; 480 h, 20 DAT): 65%
- observed activity in % destruction 20 days after treatment ([3]; 100 g ai/ha): 55%
- inhibition at 13 g/ha ([4]; 168 h, 7 DAT): 25%
- inhibition at 13 g/ha ([4]; 480 h, 20 DAT): 80%
- inhibition at 50 g/ha ([5]; 168 h, 7 DAT): 65%
- inhibition at 50 g/ha ([5]; 480 h, 20 DAT): 90%
- observed activity in % destruction 20 days after treatment ([6]; 13 g ai/ha): 30%
- inhibition at 25 g/ha ([7]; 192 h, 8 DAT): 0%
- inhibition at 50 g/ha ([7]; 192 h, 8 DAT): 0%
- inhibition at 25 g/ha ([7]; 480 h, 20 DAT): 0%
- inhibition at 50 g/ha ([7]; 480 h, 20 DAT): 0%
- inhibition at 50 g/ha ([8]; 192 h, 8 DAT): 20%
- inhibition at 50 g/ha ([8]; 480 h, 20 DAT): 85%
- inhibition at 25 g/ha ([9]; 192 h, 8 DAT): 50%
- inhibition at 50 g/ha ([9]; 192 h, 8 DAT): 50%
- inhibition at 25 g/ha ([9]; 480 h, 20 DAT): 80%
- inhibition at 50 g/ha ([9]; 480 h, 20 DAT): 98%
- inhibition at 50 g/ha ([10]; 192 h, 8 DAT): 50%
- inhibition at 50 g/ha ([10]; 480 h, 20 DAT): 80%
- inhibition at 25 g/ha ([11]; 192 h, 8 DAT): 0%
- inhibition at 25 g/ha ([11]; 480 h, 20 DAT): 0%

Structure (SMILES): COc1c(Cl)ccc(Cl)c1C(=O)O [dicamba]
- inhibition at 50 g/ha ([1]; 168 h, 7 DAT): 10%
- inhibition at 50 g/ha ([1]; 480 h, 20 DAT): 20%
- inhibition at 50 g/ha ([2]; 168 h, 7 DAT): 40%
- inhibition at 50 g/ha ([2]; 480 h, 20 DAT): 10%
- observed activity in % destruction 20 days after treatment ([3]; 50 g ai/ha): 80%
- inhibition at 100 g/ha ([4]; 168 h, 7 DAT): 20%
- inhibition at 100 g/ha ([4]; 480 h, 20 DAT): 15%
- inhibition at 50 g/ha ([5]; 168 h, 7 DAT): 25%
- inhibition at 100 g/ha ([5]; 168 h, 7 DAT): 25%
- inhibition at 50 g/ha ([5]; 480 h, 20 DAT): 0%
- inhibition at 100 g/ha ([5]; 480 h, 20 DAT): 0%
- observed activity in % destruction 20 days after treatment ([6]; 200 g ai/ha): 90%
- inhibition at 50 g/ha ([7]; 192 h, 8 DAT): 30%
- inhibition at 100 g/ha ([7]; 192 h, 8 DAT): 30%
- inhibition at 200 g/ha ([7]; 192 h, 8 DAT): 75%
- inhibition at 50 g/ha ([7]; 480 h, 20 DAT): 35%
- inhibition at 100 g/ha ([7]; 480 h, 20 DAT): 50%
- inhibition at 200 g/ha ([7]; 480 h, 20 DAT): 85%
- inhibition at 200 g/ha ([8]; 192 h, 8 DAT): 50%
- inhibition at 200 g/ha ([8]; 480 h, 20 DAT): 65%
- inhibition at 200 g/ha ([9]; 192 h, 8 DAT): 40%
- inhibition at 200 g/ha ([9]; 480 h, 20 DAT): 70%
- inhibition at 200 g/ha ([10]; 192 h, 8 DAT): 65%
- inhibition at 200 g/ha ([10]; 480 h, 20 DAT): 95%
- inhibition at 100 g/ha ([11]; 192 h, 8 DAT): 50%
- inhibition at 200 g/ha ([11]; 192 h, 8 DAT): 85%
- inhibition at 100 g/ha ([11]; 480 h, 20 DAT): 80%
- inhibition at 200 g/ha ([11]; 480 h, 20 DAT): 95%
